This is an account of results in US10112929B2, “Lactams as inhibitors of rock” (BRISTOL-MYERS SQUIBB COMPANY, priority 2015, dated 2018).

Test [1] deals with porcine model of IL-1 beta-induced coronary stenosis. The conditions noted are these: long term treatment; cited from earlier work.
The subject of another test is rat stroke model. The settings on record: in vivo; cited from earlier work.
The next test addresses ROCK2 (Homo sapiens (Human), UniProt O75116).
The next test deals with Dahl salt-sensitive rats. The conditions noted are these: rat, in vivo; cited from earlier work.
Test [2] relates to neointimal formation in rats. The settings on record: cited from earlier work.
Test [3] has as its system spontaneously hypertensive rat, renal hypertensive rat and deoxycortisone acetate salt hypertensive rat models. The conditions noted are these: cited from earlier work.

Each structure is given as a SMILES string. Where two headings read alike, the source gives them in different places.
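Wherever IC50 is given: rho kinase enzyme reaction halted with EDTA, phospho- and non-phospho peptide separated for read-out, kinase activity inhibition derived across a dose-response series, DMSO under 2%.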

Chain of ROCK2 (O75116 whole entry, species assumed): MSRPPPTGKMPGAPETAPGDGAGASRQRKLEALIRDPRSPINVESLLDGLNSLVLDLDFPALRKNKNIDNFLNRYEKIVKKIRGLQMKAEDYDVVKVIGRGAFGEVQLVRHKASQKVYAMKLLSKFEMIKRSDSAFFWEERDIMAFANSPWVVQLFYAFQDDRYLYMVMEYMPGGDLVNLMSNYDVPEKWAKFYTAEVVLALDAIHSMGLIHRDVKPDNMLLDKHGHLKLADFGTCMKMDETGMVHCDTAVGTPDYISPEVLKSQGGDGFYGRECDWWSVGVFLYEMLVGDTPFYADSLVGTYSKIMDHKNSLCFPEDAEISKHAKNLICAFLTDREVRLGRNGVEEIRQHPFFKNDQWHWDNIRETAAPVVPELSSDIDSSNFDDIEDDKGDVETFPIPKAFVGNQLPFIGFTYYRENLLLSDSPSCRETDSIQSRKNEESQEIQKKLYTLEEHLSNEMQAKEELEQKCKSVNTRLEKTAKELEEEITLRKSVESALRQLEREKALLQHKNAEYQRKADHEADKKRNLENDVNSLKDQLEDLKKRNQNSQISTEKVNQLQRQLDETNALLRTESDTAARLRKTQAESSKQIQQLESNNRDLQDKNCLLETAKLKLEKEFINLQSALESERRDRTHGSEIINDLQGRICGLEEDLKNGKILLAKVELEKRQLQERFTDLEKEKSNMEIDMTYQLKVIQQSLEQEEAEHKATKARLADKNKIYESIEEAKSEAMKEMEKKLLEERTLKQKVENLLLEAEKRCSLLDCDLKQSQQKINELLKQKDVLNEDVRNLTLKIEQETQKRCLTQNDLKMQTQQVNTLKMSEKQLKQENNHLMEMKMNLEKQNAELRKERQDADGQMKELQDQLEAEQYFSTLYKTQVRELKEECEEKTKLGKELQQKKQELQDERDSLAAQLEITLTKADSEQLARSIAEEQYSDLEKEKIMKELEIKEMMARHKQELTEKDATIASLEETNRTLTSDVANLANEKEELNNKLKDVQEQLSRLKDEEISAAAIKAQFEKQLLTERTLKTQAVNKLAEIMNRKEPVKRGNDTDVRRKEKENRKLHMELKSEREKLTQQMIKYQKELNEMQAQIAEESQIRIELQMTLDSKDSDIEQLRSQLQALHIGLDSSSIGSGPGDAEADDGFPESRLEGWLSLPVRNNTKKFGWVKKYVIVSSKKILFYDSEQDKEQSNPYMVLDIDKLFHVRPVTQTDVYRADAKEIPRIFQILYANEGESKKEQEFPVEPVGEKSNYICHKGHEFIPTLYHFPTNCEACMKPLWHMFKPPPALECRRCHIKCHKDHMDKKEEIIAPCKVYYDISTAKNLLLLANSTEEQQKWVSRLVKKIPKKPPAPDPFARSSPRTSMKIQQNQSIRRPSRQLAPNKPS

Take `O=S(=O)(c1cccc2cnccc12)N1CCCNCC1` [fasudil]: in test [1], the coronary constrictive remodeling result is on record as “promote a regression of coronary constrictive remodeling” and the coronary stenosis result is recorded as “progressively reduce coronary stenosis”. Also, in the test with rat stroke model, the “infarct size and neurologic deficit” value is “reduce both the infarct size and neurologic deficit”. Turning to `COc1cccc(NC2CCN(c3ncc(-c4cn[nH]c4)cc3F)C2=O)c1` (single isomer, unassigned) [Example 358, 1-(3-fluoro-5-(1H-pyrazol-4-yl)pyridin-2-yl)-3-((3-methoxyphenyl)amino) pyrrolidin-2-one], at ROCK2, the IC50 (in general, the concentration at which inhibition is half-maximal) is 100 to 2200 nM. Consider `COc1cc(NC2CCN(c3ccc(-c4cn[nH]c4)c(OC)n3)C2=O)ccc1F` (single isomer, unassigned) [Example 208, 3-((4-fluoro-3-methoxyphenyl)amino)-1-(6-methoxy-5-(1H-pyrazol-4-yl)pyridin-2-yl)pyrrolidin-2-one], for which, at ROCK2, the concentration for half-maximal inhibition (IC50) is less than 10 nM. Regarding `COc1cc(NC2CCN(c3ccc(-c4cn[nH]c4)c(F)c3F)C2=O)ccc1F` (single isomer, unassigned) [Example 308, 1-(2,3-difluoro-4-(1H-pyrazol-4-yl)phenyl)-3-((4-fluoro-3-methoxyphenyl)amino)pyrrolidin-2-one], the IC50 against ROCK2 was in the range of 10 to 100 nM.

For the molecule `COc1ccc(NC2CCN(c3ccc(-c4cn[nH]c4)cc3)C2=O)cc1F` (single isomer, unassigned) [Example 14, 1-(4-(1H-pyrazol-4-yl)phenyl)-3-((3-fluoro-4-methoxyphenyl)amino)pyrrolidin-2-one], the IC50 against ROCK2 is 100 to 2200 nM. Regarding `COc1cc(NC2CCN(c3ccc(-c4cn[nH]c4)c(OCCN(C)C)c3)C2=O)ccc1F` (racemic) [Example 347, 1-(3-(2-(dimethylamino)ethoxy)-4-(1H-pyrazol-4-yl)phenyl)-3-((4-fluoro-3-methoxyphenyl)amino)pyrrolidin-2-one], the IC50 against ROCK2 lay in the range of 100 to 2200 nM.

At ROCK2, `COc1cccc(NC2CCN(c3ccc(-c4ccnc(N)n4)cc3)C2=O)c1` (single isomer, unassigned) [Example 79, 1-(4-(2-aminopyrimidin-4-yl)phenyl)-3-((3-methoxyphenyl)amino)pyrrolidin-2-one] came in with an IC50 of 10 to 100 nM.

For the molecule `CCc1cc(N2CCC(Nc3cccc(OC)c3)C2=O)ncc1-c1cn[nH]c1` (single isomer, unassigned) [Example 204, 1-(4-ethyl-5-(1H-pyrazol-4-yl)pyridin-2-yl)-3-((3-methoxyphenyl)amino) pyrrolidin-2-one], on ROCK2, the IC50 is 100 to 2200 nM.

On ROCK2, `CCc1cc(N2CCC(Nc3ccc(F)c(OC)c3)C2=O)ccc1-c1cn[nH]c1` (single isomer, unassigned) [Example 242, 1-(3-ethyl-4-(1H-pyrazol-4-yl)phenyl)-3-((4-fluoro-3-methoxyphenyl)amino) pyrrolidin-2-one] came in with a half-inhibitory concentration (IC50) of 10 to 100 nM.

As to `COc1cc(NC2CCN(c3ccc(-c4cn[nH]c4)cn3)C2=O)ccc1F` (single isomer, unassigned) [Example 84, 1-(5-(1H-pyrazol-4-yl)pyridin-2-yl)-3-((4-fluoro-3-methoxyphenyl)amino)pyrrolidin-2-one], at ROCK2, the IC50 was in the range of 10 to 100 nM. Still for that read-out and setting: the result for `COCc1cc(N2CCC(Nc3ccc(F)c(OC)c3)C2=O)ccc1-c1cn[nH]c1` (single isomer, unassigned) [Example 182, 3-((4-fluoro-3-methoxyphenyl)amino)-1-(3-(methoxymethyl)-4-(1H-pyrazol-4-yl)phenyl)pyrrolidin-2-one] reads 100 to 2200 nM. Same read-out and setting: the result for `CCOc1cc(N2CCC(Nc3cc(OC)ccc3F)C2=O)ccc1-c1cn[nH]c1` (single isomer, unassigned) [Example 41, 1-(3-ethoxy-4-(1H-pyrazol-4-yl)phenyl)-3-((2-fluoro-5-methoxyphenyl)amino)pyrrolidin-2-one] reads 100 to 2200 nM. Still for that read-out and setting: the result for `COc1ccc(N[C@@H]2CCN(c3ccc(-c4cn[nH]c4)cc3)C2=O)c(OC)c1` [Example 395, (R)-1-(4-(1H-pyrazol-4-yl)phenyl)-3-((2,4-dimethoxyphenyl)amino)pyrrolidin-2-one] reads 100 to 2200 nM. Turning to `O=C1C(Nc2cccc(OC(F)F)c2)CCN1c1ccc(-c2cn[nH]c2)c(F)c1` (single isomer, unassigned) [Example 356, 3-((3-(difluoromethoxy)phenyl)amino)-1-(3-fluoro-4-(1H-pyrazol-4-yl)phenyl) pyrrolidin-2-one], the IC50 against ROCK2 lay within 10 to 100 nM.

In turn, `COc1cc(NC2CCN(c3ccc(-c4cn[nH]c4)c(OC(F)F)c3)C2=O)ccc1F` (single isomer, unassigned) [Example 107, 1-[3-(difluoromethoxy)-4-(1H-pyrazol-4-yl)phenyl]-3-[(4-fluoro-3-methoxyphenyl)amino]pyrrolidin-2-one] registered an IC50 against ROCK2 of 10 to 100 nM. The same measure, in the same setting: the result for `COc1cc(F)cc(NC2CCN(c3ccc(-c4cn[nH]c4)cc3)C2=O)c1` (single isomer, unassigned) [Example 27, 1-(4-(1H-pyrazol-4-yl)phenyl)-3-((3-fluoro-5-methoxyphenyl)amino)pyrrolidin-2-one] reads less than 10 nM. Same read-out and setting: to `COc1ccc(F)c(NC2CCN(c3ccc(-c4cn[nH]c4)cc3)C2=O)c1` (single isomer, unassigned) [Example 240, 1-(4-(1H-pyrazol-4-yl)phenyl)-3-((2-fluoro-5-methoxyphenyl)amino)pyrrolidin-2-one] belongs 10 to 100 nM; to `COc1ccc(F)c(NC2CCN(c3ccc(-c4cn[nH]c4)cn3)C2=O)c1` (single isomer, unassigned) [Example 304, 1-(5-(1H-pyrazol-4-yl)pyridin-2-yl)-3-((2-fluoro-5-methoxyphenyl)amino)pyrrolidin-2-one], 10 to 100 nM. Same read-out and setting: the result for `O=C1C(Nc2ccccc2)CCN1c1ccc(-c2cn[nH]c2)c(F)c1` (single isomer, unassigned) [Example 44, 1-(3-fluoro-4-(1H-pyrazol-4-yl)phenyl)-3-(phenylamino)pyrrolidin-2-one] reads less than 10 nM; that for `COc1ccc(NC2CCN(c3ccc(-c4cn[nH]c4)c(Cl)c3)C2=O)cc1F` (single isomer, unassigned) [Example 157, 1-(3-chloro-4-(1H-pyrazol-4-yl)phenyl)-3 ((3-fluoro-4-methoxyphenyl)amino) pyrrolidin-2-one], 100 to 2200 nM; that for `COc1cc(F)cc(NC2CCN(c3ccc(-c4cn[nH]c4)cc3Cl)C2=O)c1` (single isomer, unassigned) [Example 169, 1-(2-chloro-4-(1H-pyrazol-4-yl)phenyl)-3 ((3-fluoro-5-methoxyphenyl)amino) pyrrolidin-2-one], 100 to 2200 nM. In the case of `COc1cccc(NC2CCN(c3ccc(-c4cn[nH]c4)cn3)C2=O)c1` (single isomer, unassigned) [Example 86, 1-(5-(1H-pyrazol-4-yl)pyridin-2-yl)-3-((3-methoxyphenyl)amino)pyrrolidin-2-one], at ROCK2, the half-maximal inhibitory concentration (IC50) is less than 10 nM. For `C[C@@H](N)[C@H]1CC[C@H](C(=O)Nc2ccncc2)CC1` [Example Y-27632], the “ventricular hypertrophy, fibrosis and function” value with Dahl salt-sensitive rats was “improve ventricular hypertrophy, fibrosis and function”. Moreover, the neointimal formation result in test [2] is “inhibited neointimal formation”. In addition, the blood pressure result is “only a minor effect on blood pressure” in test [3] (control rats) and “significantly decrease blood pressure” in test [3] (three rat models of hypertension). The molecule `COc1cc(NC2CCN(c3ccc(-c4cn[nH]c4)c(C)n3)C2=O)ccc1F` (single isomer, unassigned) [Example 195, 3-((4-fluoro-3-methoxyphenyl)amino)-1-(6-methyl-5-(1H-pyrazol-4-yl)pyridin-2-yl)pyrrolidin-2-one] showed an IC50 on ROCK2 of 10 to 100 nM.

With `COc1c(F)cccc1NC1CCN(c2ccc(-c3cn[nH]c3)cc2F)C1=O` (single isomer, unassigned) [Example 343, 3-((3-fluoro-2-methoxyphenyl)amino)-1-(2-fluoro-4-(1H-pyrazol-4-yl)phenyl) pyrrolidin-2-one], the IC50 at ROCK2 is 100 to 2200 nM.

Molecule `COc1cccc(NC2CCN(c3ccc(-c4cn[nH]c4)cc3)C2=O)c1C` (single isomer, unassigned) [Example 326, 1-(4-(1H-pyrazol-4-yl)phenyl)-3-((3-methoxy-2-methylphenyl)amino) pyrrolidin-2-one] had an IC50 at ROCK2 of 10 to 100 nM. In the case of `COc1cccc(NC2CCN(c3ccc(-c4cn[nH]c4)c(F)c3)C2=O)c1` (single isomer, unassigned) [Example 46, 1-(3-fluoro-4-(1H-pyrazol-4-yl)phenyl)-3-((3-methoxyphenyl)amino)pyrrolidin-2-one], the IC50 against ROCK2 was less than 10 nM.
